Assay results as given in patent US20240199587A1, “HETEROCYCLIC COMPOUNDS” (Hoffmann-La Roche Inc., priority 2021, published 2024).

target: T1, MAGL (Homo sapiens, UniProt Q99685); test: 2-AG assay (MAGL inhibitory activity, hydrolysis of 2-arachidonoylglycerol to arachidonic acid followed by mass spectrometry); assay type: biochemical; settings: 8 μM 2-arachidonoylglycerol, 15 min pre-incubation, 30 min incubation at RT, RapidFire MS readout
T1 sequence (Q99685 1-303): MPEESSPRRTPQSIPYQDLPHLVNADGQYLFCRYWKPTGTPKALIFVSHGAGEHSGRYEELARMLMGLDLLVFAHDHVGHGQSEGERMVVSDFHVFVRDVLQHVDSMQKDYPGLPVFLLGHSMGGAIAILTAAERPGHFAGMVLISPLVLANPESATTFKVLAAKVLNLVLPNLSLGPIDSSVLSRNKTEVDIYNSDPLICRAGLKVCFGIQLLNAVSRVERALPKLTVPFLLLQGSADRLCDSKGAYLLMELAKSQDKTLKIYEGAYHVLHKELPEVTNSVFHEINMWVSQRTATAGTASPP
Text: Compounds of formula (I) were profiled for MAGL inhibitory activity by determining the enzymatic activity by following the hydrolysis of the natural substrate 2-arachidonoylglycerol (2-AG) resulting in arachidonic acid, which can be followed by mass spectrometry. This assay is hereinafter abbreviated “2-AG assay”.
Compounds of formula (I) were profiled for MAGL inhibitory activity by determining the enzymatic activity by following the hydrolysis of the natural substrate 2-arachidonoylglycerol (2-AG) resulting in arachidonic acid, which can be followed by mass spectrometry. This assay is hereinafter abbreviated “2-AG assay”. The 2-AG assay was carried out in 384 well polypropylene assay plates. […] Compound dilutions were added to MAGL protein in assay buffer (50 mM TRIS, 1 mM EDTA, 0.01% (v/v) Tween-20, 2.5% (v/v) DMSO). After shaking, the plate was incubated for 15 min at RT. To start the reaction, 2-arachidonoylglycerol in assay buffer was added. The final concentrations in the assay was […] for MAGL protein and 8 μM 2-arachidonoylglyerol. After shaking and 30 min incubation at RT, the reaction was quenched by the addition of two assay volumes of acetonitrile containing 4 μM of d8-arachidonic acid. The amount of arachidonic acid formed was traced by an online SPE system (Agilent Rapidfire) coupled to a triple quadrupole mass spectrometer. A C18 SPE cartridge (Agilent G9205A) was used in an acetonitrile/water liquid setup. The mass spectrometer was operated in negative electrospray mode following the mass transitions 303.1→259.1 for arachidonic acid and 311.1→267.0 for d8-arachidonic acid. The activity of the compounds was calculated based on the ratio of intensities [arachidonic acid/d8-arachidonic acid].

Row | Molecule | IC50 [nM]
1 | O=C(N1CC(Oc2cncc(C3CC3)c2Cl)C1)N1CC2(CC(n3cnc(C4CC4)n3)C2)C1 [Example 235, [3-[(4-chloro-5-cyclopropyl-3-pyridyl)oxy]azetidin-1-yl]-[6-(3-cyclopropyl-1,2,4-triazol-1-yl)-2-azaspiro[3.3]heptan-2-yl]methanone] | 6
2 | N-[2-[6-[3-(1- hydroxycyclopropyl)- 1,2,4-triazol-1-yl]-2- azaspiro[3.3]heptane-2- carbonyl]-2- azaspiro[3.3]heptan-6- yl]-3- (trifluoromethyl) benzenesulfonamide [Example 401] | 9.45
3 | O=C(N1CCC(CNS(=O)(=O)c2ccccc2)CC1)N1CC2(CC(n3cnc(C4CC4)n3)C2)C1 [Example 325, N-[[1-[6-(3-cyclopropyl-1,2,4-triazol-1-yl)-2-azaspiro[3.3]heptane-2-carbonyl]-4-piperidyl]methyl]benzene-sulfonamide] | 482
4 | CC1(S(=O)(=O)N2CC3(CN(C(=O)N4CC5(CC(n6cnc(C7CC7)n6)C5)C4)C3)C2)CC1 [Example 288, [6-(3-cyclopropyl-1,2,4-triazol-1-yl)-2-azaspiro[3.3]heptan-2-yl]-[2-(1-methylcyclopropyl)sulfonyl-2,6-diazaspiro[3.3]heptan-6-yl]methanone] | 62
5 | O=C(N1CC2(CC(n3cnc(C4CC4)n3)C2)C1)N1CC2(C1)CN(S(=O)(=O)C1CS(=O)(=O)C1)C2 [Example 339, [6-(3-cyclopropyl-1,2,4-triazol-1-yl)-2-azaspiro[3.3]heptan-2-yl]-[2-(1,1-dioxothietan-3-yl)sulfonyl-2,6-diazaspiro[3.3]heptan-6-yl]methanone] | 3010
6 | O=C(N1CC(OCc2ccc(C(F)(F)F)cc2F)C1)N1CC2(CC(n3cnc(C4CC4)c3)C2)C1 [Example 102, [6-(4-cyclopropylimidazol-1-yl)-2-azaspiro[3.3]heptan-2-yl]-[3-[[2-fluoro-4-(trifluoromethyl)phenyl]methoxy]azetidin-1-yl]methanone] | 51.4
7 | CC(C)(C)c1nc(-c2ccc(C(=O)N3CC4(CC(n5ccc(C(F)(F)F)n5)C4)C3)cc2)no1 [Example 5, [4-(5-tert-butyl-1,2,4-oxadiazol-3-yl)phenyl]-[6-[3-(trifluoromethyl)pyrazol-1-yl]-2-azaspiro[3.3]heptan-2-yl]methanone] | 85.9
8 | CC(C)(C)c1nc(-c2ccc(C(=O)N3CC4(CC(n5cnc(Cl)n5)C4)C3)cc2)no1 [Example 172, [4-(5-tert-butyl-1,2,4-oxadiazol-3-yl)phenyl]-[6-(3-chloro-1,2,4-triazol-1-yl)-2-azaspiro[3.3]heptan-2-yl]methanone] | 170
9 | O=C(N1CC(n2cc(OCC(F)(F)F)cn2)C1)N1CC2(CC(n3cnc(C4CC4)n3)C2)C1 [Example 165, [6-(3-cyclopropyl-1,2,4-triazol-1-yl)-2-azaspiro[3.3]heptan-2-yl]-[3-[4-(2,2,2-trifluoroethoxy)pyrazol-1-yl]azetidin-1-yl]methanone] | 102
10 | O=C(N1CC(Oc2ccc(C(F)(F)F)c(C3CC3)c2)C1)N1CC2(CC(c3ccc(C(F)(F)F)nc3)C2)C1 [Example 528] | 245
11 | O=C(N1CC(C23CC(NCC4(C(F)(F)F)CC4)(C2)C3)C1)N1CC2(CC(n3cnc(C4CC4)n3)C2)C1 [Example 445, [6-(3-cyclopropyl-1,2,4-triazol-1-yl)-2-azaspiro[3.3]heptan-2-yl]-[3-[3-[[1-(trifluoromethyl)cyclopropyl]methylamino]-1-bicyclo[1.1.1]pentanyl]azetidin-1-yl]methanone] | 0.3
12 | COc1cccc(S(=O)(=O)N2CC3(CN(C(=O)N4CC5(CC(n6cnc(C7CC7)n6)C5)C4)C3)C2)c1 [Example 245, [6-(3-cyclopropyl-1,2,4-triazol-1-yl)-2-azaspiro[3.3]heptan-2-yl]-[2-(3-methoxyphenyl)sulfonyl-2,6-diazaspiro[3.3]heptan-6-yl]methanone] | 9.9
13 | O=C(N1CC(c2ccc(-c3ccc(Cl)cc3Cl)cn2)C1)N1CC2(CC(c3ccc(C(F)(F)F)nc3)C2)C1 [Example 537, [3-[5-(2,4-dichlorophenyl)-2-pyridyl]azetidin-1-yl]-[6-[6-(trifluoromethyl)-3-pyridyl]-2-azaspiro[3.3]heptan-2-yl]methanone] | 80.3
14 | O=C(N1CC(Oc2ccnc(C(F)(F)F)n2)C1)N1CC2(CC(n3cnc(C4CC4)n3)C2)C1 [Example 283, [6-(3-cyclopropyl-1,2,4-triazol-1-yl)-2-azaspiro[3.3]heptan-2-yl]-[3-[2-(trifluoromethyl)pyrimidin-4-yl]oxyazetidin-1-yl]methanone] | 48.3
15 | CS(=O)(=O)c1cc(C(F)(F)F)ccc1C1CC2(C1)CN(C(=O)N1CC3(CC(Cc4ccc(F)cc4F)C3)C1)C2 [Example 347, [6-[(2,4-difluorophenyl)methyl]-2-azaspiro[3.3]heptan-2-yl]-[6-[2-methylsulfonyl-4-(trifluoromethyl)phenyl]-2-azaspiro[3.3]heptan-2-yl]methanone] | 833
16 | O=C(N1CCC(CNS(=O)(=O)c2ccc(Cl)cc2)CC1)N1CC2(CC(n3cnc(C4CC4)n3)C2)C1 [Example 271] | 33.8
17 | O=C(N1C[C@H]2CC(Oc3ccc(F)cc3Cl)C[C@H]2C1)N1CC2(CC(n3cnc(C4CC4)c3)C2)C1 (mixture of isomers) [Example 91, [6-(4-cyclopropylimidazol-1-yl)-2-azaspiro[3.3]heptan-2-yl]-[rac-(3aR,6aS)-5-(2-chloro-4-fluoro-phenoxy)-3,3a,4,5,6,6a-hexahydro-1H-cyclopenta[c]pyrrol-2-yl]methanone] | 6.3
18 | O=C(N1CC(OCc2ccc(S(F)(F)(F)(F)F)cc2F)C1)N1CC2(CC(n3cnc(C4CC4)n3)C2)C1 [Example 49] | 0.3
19 | O=C(N1CC2(CC(n3cnc(C4CC4)n3)C2)C1)N1CC2(C1)CN(S(=O)(=O)CC1CCCCC1)C2 [Example 244, [2-(cyclohexylmethylsulfonyl)-2,6-diazaspiro[3.3]heptan-6-yl]-[6-(3-cyclopropyl-1,2,4-triazol-1-yl)-2-azaspiro[3.3]heptan-2-yl]methanone] | 9
20 | NS(=O)(=O)c1ccccc1CN1CC2(C1)CN(C(=O)N1CC3(CC(n4cnc(C5CC5)n4)C3)C1)C2 [Example 257, 2-[[2-[6-(3-cyclopropyl-1,2,4-triazol-1-yl)-2-azaspiro[3.3]heptane-2-carbonyl]-2,6-diazaspiro[3.3]heptan-6-yl]methyl] benzenesulfonamide] | 18
21 | O=C(N1CC2(CC(Oc3cc(F)cc(C(F)(F)F)c3)C2)C1)N1CC2(CC(n3cnc(C4CC4)n3)C2)C1 [Example 46, (6-(3-cyclopropyl-1H-1,2,4-triazol-1-yl)-2-azaspiro[3.3]heptan-2-yl)(6-(3-fluoro-5-(trifluoromethyl)phenoxy)-2-azaspiro[3.3]heptan-2-yl)methanone] | 0.2
22 | O=C(N1CC(OCc2ccc(F)cc2Cl)C1)N1CC2(CC(c3ccc(C(F)(F)F)nc3)C2)C1 [Example 533, [3-[(2-chloro-4-fluoro-phenyl)methoxy]azetidin-1-yl]-[6-[6-(trifluoromethyl)-3-pyridyl]-2-azaspiro[3.3]heptan-2-yl]methanone] | 813
23 | O=C(N1CC2(CC(n3cnc(C4CC4)n3)C2)C1)N1CC2(CCN(Cc3ccc(C(F)(F)F)nc3)C2)C1 [Example 434] | 3.37
24 | O=C(N1CC2(CC(Oc3ccc(OC(F)F)nc3)C2)C1)N1CC2(CC(n3cnc(C4CC4)n3)C2)C1 [Example 56, (6-(3-cyclopropyl-1H-1,2,4-triazol-1-yl)-2-azaspiro[3.3]heptan-2-yl)(6-((6-(difluoromethoxy)pyridin-3-yl)oxy)-2-azaspiro[3.3]heptan-2-yl)methanone] | 2.5
25 | O=C(N1CC(OCc2ccc(C(F)(F)F)cc2)C1)N1CC2(CC(n3cnc(C4CC4)n3)C2)C1 [Example 72, (6-(3-cyclopropyl-1H-1,2,4-triazol-1-yl)-2-azaspiro[3.3]heptan-2-yl)(3-((4-(trifluoromethyl)benzyl)oxy)azetidin-1-yl)methanone] | 3.9
26 | Cc1ccc(OC2CN(C(=O)N3CC4(CC(n5cnc(C6CC6)n5)C4)C3)C2)c(Cl)c1 [Example 97, (3-(2-chloro-4-methylphenoxy)azetidin-1-yl)(6-(3-cyclopropyl-1H-1,2,4-triazol-1-yl)-2-azaspiro[3.3]heptan-2-yl)methanone] | 3.4
27 | NC(=O)C(c1ccc(F)cc1)N1CCN(C(=O)N2CC3(CC(n4cnc(C5CC5)n4)C3)C2)CC1 (stereo not drawn) [Example 332, 2-[4-[6-(3-cyclopropyl-1,2,4-triazol-1-yl)-2-azaspiro[3.3]heptane-2-carbonyl]piperazin-1-yl]-2-(4-fluorophenyl)acetamide] | 904
